Values quoted from earlier work, collected in US20130281394A1, “Chemosensory Receptor Ligand-Based Therapies” (ELCELYX THERAPEUTICS, INC., priority 2010, published 2013).
Marks after values point to notes of the source that are not given here.

Target: T1, sweet receptor (Homo sapiens, UniProt Q7RTX0+Q8TE23)
T1 sequence (Q8TE23 20-839): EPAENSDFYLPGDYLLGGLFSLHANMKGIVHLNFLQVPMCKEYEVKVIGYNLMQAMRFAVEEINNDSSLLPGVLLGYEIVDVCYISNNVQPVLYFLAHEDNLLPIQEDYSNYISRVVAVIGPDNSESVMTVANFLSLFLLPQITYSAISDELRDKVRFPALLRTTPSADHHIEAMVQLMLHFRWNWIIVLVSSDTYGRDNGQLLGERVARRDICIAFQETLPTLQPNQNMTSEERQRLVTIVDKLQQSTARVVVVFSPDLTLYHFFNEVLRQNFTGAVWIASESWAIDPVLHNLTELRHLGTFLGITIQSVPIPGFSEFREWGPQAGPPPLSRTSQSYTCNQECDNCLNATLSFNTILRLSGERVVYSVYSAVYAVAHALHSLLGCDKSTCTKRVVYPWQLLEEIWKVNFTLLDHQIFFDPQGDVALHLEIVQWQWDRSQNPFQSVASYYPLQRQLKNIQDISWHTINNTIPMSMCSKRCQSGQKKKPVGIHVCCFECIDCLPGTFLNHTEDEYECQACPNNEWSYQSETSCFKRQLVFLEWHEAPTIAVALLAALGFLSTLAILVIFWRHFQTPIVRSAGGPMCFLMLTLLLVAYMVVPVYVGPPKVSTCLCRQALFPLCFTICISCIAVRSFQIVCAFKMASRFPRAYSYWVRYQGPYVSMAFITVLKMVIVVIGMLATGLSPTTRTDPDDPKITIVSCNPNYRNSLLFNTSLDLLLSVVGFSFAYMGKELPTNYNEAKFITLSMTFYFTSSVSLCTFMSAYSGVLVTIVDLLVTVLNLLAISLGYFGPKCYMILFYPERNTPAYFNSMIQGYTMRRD
T1 sequence (Q7RTX0 21-852): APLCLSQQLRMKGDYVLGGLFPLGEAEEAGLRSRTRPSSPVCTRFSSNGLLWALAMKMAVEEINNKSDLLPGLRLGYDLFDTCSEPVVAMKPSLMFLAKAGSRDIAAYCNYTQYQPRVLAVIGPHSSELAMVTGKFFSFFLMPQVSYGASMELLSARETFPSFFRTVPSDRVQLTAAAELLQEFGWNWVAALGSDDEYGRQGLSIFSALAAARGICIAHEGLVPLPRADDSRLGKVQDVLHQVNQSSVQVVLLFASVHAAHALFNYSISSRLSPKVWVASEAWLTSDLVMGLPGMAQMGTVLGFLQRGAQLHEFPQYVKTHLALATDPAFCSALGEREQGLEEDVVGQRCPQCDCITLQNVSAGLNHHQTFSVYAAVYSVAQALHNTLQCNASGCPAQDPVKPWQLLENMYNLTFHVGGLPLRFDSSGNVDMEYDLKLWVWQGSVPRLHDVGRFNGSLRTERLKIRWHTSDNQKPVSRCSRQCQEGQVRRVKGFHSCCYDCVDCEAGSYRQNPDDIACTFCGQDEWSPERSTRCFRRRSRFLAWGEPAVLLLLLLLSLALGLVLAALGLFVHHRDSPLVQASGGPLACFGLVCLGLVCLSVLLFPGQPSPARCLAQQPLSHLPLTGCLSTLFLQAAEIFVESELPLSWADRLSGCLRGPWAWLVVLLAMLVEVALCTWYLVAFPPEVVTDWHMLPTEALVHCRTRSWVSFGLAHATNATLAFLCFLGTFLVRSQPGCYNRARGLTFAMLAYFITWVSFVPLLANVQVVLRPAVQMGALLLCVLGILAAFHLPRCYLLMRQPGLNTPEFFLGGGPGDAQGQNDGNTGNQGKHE
Details: relative sweetness on a weight comparison basis to sucrose (= 1.0); ranges: varied with the concentration of sucrose

## 4β,11α-Dimethyl-1,2,3,4,5,10-hexahydro-fluorene-4α,6α-dicarboxylic acid
  Sweetness/potency: 1,300-1,800^d

## COc1c(O)cc2c(c1O)C(=O)[C@H](OC(C)=O)[C@@H](c1ccc(O)c(O)c1)O2 [(2R,3R)-2,3-Dihydro-5,7,3′,4′-tetrahydroxy-6-methoxy-3-O-acetylflavonol]
  Sweetness/potency: 25

## COc1c(O)cc2c(c1O)C(=O)[C@H](O)[C@@H](c1ccc(O)c(O)c1)O2 [(2R,3R)-2,3-Dihydro-5,7,3′,4′-tetrahydroxy-6-methoxyflavonol]
  Sweetness/potency: 15

## COc1c(O)cc2c(c1O)C(=O)[C@H](OC(C)=O)[C@@H](c1ccc(O)cc1)O2 [(2R,3R)-2,3-Dihydro-5,7,4′-trihydroxy-6-methoxy-3-O-acetylflavonol]
  Sweetness/potency: 20

## CC(=O)O[C@H]1C(=O)c2c(O)cc(O)cc2O[C@@H]1c1ccc(O)c(O)c1 [(2R,3R)-Dihydroquercetin 3-O-acetate]
  Sweetness/potency: 80

## CC(C)=CCC[C@](C)(O)[C@@H]1CCC(C)=CC1=O [(+)-Hernandulcin]
  Sweetness/potency: 1,500

## CC1=CC[C@@H]([C@@H](C)[C@H]2CC[C@@]3(C)[C@@H]4CC[C@H]5[C@](C)(C(=O)O)[C@@H](O[C@@H]6O[C@H](CO)[C@@H](O)[C@H](O)[C@H]6O)CC[C@@]56C[C@@]46CC[C@]23C)OC1=O [Abrusoside A]
  Sweetness/potency: 30

## COC(=O)[C@H]1O[C@@H](O[C@H]2[C@H](O[C@H]3CC[C@]45C[C@]46CC[C@]4(C)[C@@H]([C@H](C)[C@@H]7CC=C(C)C(=O)O7)CC[C@@]4(C)[C@@H]6CC[C@H]5[C@]3(C)C(=O)O)O[C@H](CO)[C@@H](O)[C@@H]2O)[C@H](O)[C@@H](O)[C@@H]1O [Abrusoside B]
  Sweetness/potency: 100

## CC1=CC[C@@H]([C@@H](C)[C@H]2CC[C@@]3(C)[C@@H]4CC[C@H]5[C@](C)(C(=O)O)[C@@H](O[C@@H]6O[C@H](CO)[C@@H](O)[C@H](O)[C@H]6O[C@@H]6O[C@H](CO)[C@@H](O)[C@H](O)[C@H]6O)CC[C@@]56C[C@@]46CC[C@]23C)OC1=O [Abrusoside C]
  Sweetness/potency: 50

## CC1=CC[C@@H]([C@@H](C)[C@H]2CC[C@@]3(C)[C@@H]4CC[C@H]5[C@](C)(C(=O)O)[C@@H](O[C@@H]6O[C@H](CO)[C@@H](O)[C@H](O)[C@H]6O[C@@H]6O[C@H](C(=O)O)[C@@H](O)[C@H](O)[C@H]6O)CC[C@@]56C[C@@]46CC[C@]23C)OC1=O [Abrusoside D]
  Sweetness/potency: 75

## CC1(C)C[C@H]2C3=CC[C@@H]4[C@@]5(C)CC[C@H](O[C@@H]6O[C@H](CO[C@@H]7OC[C@H](O)[C@H](O)[C@H]7O[C@@H]7OC[C@@H](O)[C@H](O)[C@H]7O)[C@@H](O)[C@H](O)[C@H]6O)C(C)(C)[C@@H]5CC[C@@]4(C)[C@]3(C)C[C@@H](O)[C@@]23C[C@@H]1OC3=O [Albiziasaponin A]
  Sweetness/potency: 5

## CC1(C(=O)O)CCC2(C)CCC3(C)C(=CC(=O)C4C5(C)CCC(OC6OC(C(=O)O)C(O)C(O)C6OC6OCC(O)(CO)C6O)C(C)(C)C5CCC43C)C2C1 (stereo not drawn) [Apioglycyrrhizin]
  Sweetness/potency: 300

## CC1(C)[C@@H](O[C@H]2O[C@H](C(=O)O)[C@@H](O)[C@H](O)[C@H]2O[C@@H]2OC[C@H](O)[C@H](O)[C@H]2O)CC[C@]2(C)[C@H]3C(=O)C=C4[C@@H]5C[C@@](C)(C(=O)O)CC[C@]5(C)CC[C@@]4(C)[C@]3(C)CC[C@@H]12 [Araboglycyrrhizin]
  Sweetness/potency: 150

## C/C(=C\CC[C@@H](C)[C@H]1CC[C@@]2(C)[C@@H]3CC=C4[C@@H](CC[C@H](O[C@@H]5O[C@H](CO)[C@@H](O)[C@H](O)[C@H]5O)C4(C)C)[C@]3(C)[C@H](O)C[C@]12C)CO[C@@H]1O[C@H](CO[C@@H]2O[C@H](CO)[C@@H](O)[C@H](O)[C@H]2O)[C@@H](O)[C@H](O)[C@H]1O [Carnosifloside VI]
  Sweetness/potency: 77

## COc1ccc(C2Oc3cc(O)cc(O)c3C(=O)C2OC(C)=O)cc1O (stereo not drawn) [Dihydroquercetin 3-O-acetate 4′-methyl ether]
  Sweetness/potency: 400

## C=C1C[C@@]23CC[C@H]4[C@@](C)(CCC[C@@]4(C)C(=O)O[C@@H]4O[C@H](CO)[C@@H](O)[C@H](O)[C@H]4O)[C@@H]2CC[C@]1(O[C@@H]1O[C@H](CO)[C@@H](O)[C@H](O)[C@H]1O[C@@H]1O[C@@H](C)[C@H](O)[C@@H](O)[C@H]1O)C3 [Dulcoside A]
  Sweetness/potency: 30

## C/C(=C\CO)CCC1=C(C=O)CC(OC2OCC(O)C(O)C2O)C2C(C)(CO)CCCC12C (stereo not drawn) [Gaudichaudioside A]
  Sweetness/potency: 55

## CC1(C)[C@@H](O[C@H]2O[C@H](C(=O)O)[C@@H](O)[C@H](O)[C@H]2O[C@@H]2O[C@H](C(=O)O)[C@@H](O)[C@H](O)[C@H]2O)CC[C@]2(C)[C@H]3C(=O)C=C4[C@@H]5C[C@@](C)(C(=O)O)CC[C@]5(C)CC[C@@]4(C)[C@]3(C)CC[C@@H]12 [Glycyrrhizin]
  Sweetness/potency: 93-170^d

## Oc1cc2c(cc1O)[C@@H]1c3ccc(O)c(O)c3OC[C@]1(O)C2 [Hematoxylin]
  Sweetness/potency: 120

## C[C@H](CC[C@@H](O[C@@H]1O[C@H](CO)[C@@H](O)[C@H](O)[C@H]1O[C@@H]1O[C@H](CO)[C@@H](O)[C@H](O)[C@H]1O)C(C)(C)O)[C@H]1CC[C@@]2(C)[C@H]3CC=C4[C@@H](CC[C@H](O[C@@H]5O[C@H](CO[C@@H]6O[C@H](CO)[C@@H](O)[C@H](O)[C@H]6O)[C@@H](O)[C@H](O)[C@H]5O)C4(C)C)[C@]3(C)[C@H](O)C[C@]12C [Mogroside IV]
  Sweetness/potency: 233-392^d

## C[C@H](CC[C@@H](O[C@@H]1O[C@H](CO[C@@H]2O[C@H](CO)[C@@H](O)[C@H](O)[C@H]2O)[C@@H](O)[C@H](O)[C@H]1O[C@@H]1O[C@H](CO)[C@@H](O)[C@H](O)[C@H]1O)C(C)(C)O)[C@H]1CC[C@@]2(C)[C@@H]3CC=C4[C@@H](CC[C@H](O[C@@H]5O[C@H](CO[C@@H]6O[C@H](CO)[C@@H](O)[C@H](O)[C@H]6O)[C@@H](O)[C@H](O)[C@H]5O)C4(C)C)[C@]3(C)[C@H](O)C[C@]12C [Mogroside V]
  Sweetness/potency: 250-425^d

## N[C@@H](C[C@@](O)(Cc1c[nH]c2ccccc12)C(=O)O)C(=O)O [Monatin]
  Sweetness/potency: 1,200-1,400^d

## C/C(=C\CC/C(C)=C/CO[C@@H]1O[C@H](CO)[C@@H](O)[C@H](O[C@@H]2O[C@@H](C)[C@H](O)[C@@H](O)[C@H]2O)[C@H]1O[C@@H]1O[C@@H](C)[C@H](O)[C@@H](O)[C@H]1O)CC/C=C(\C)CO[C@@H]1O[C@H](CO)[C@@H](O)[C@H](O[C@@H]2O[C@@H](C)[C@H](O)[C@@H](O)[C@H]2O)[C@H]1O[C@@H]1O[C@@H](C)[C@H](O)[C@@H](O)[C@H]1O [Mukurozioside IIb]
  Sweetness/potency: ca. 1

## C[C@@H]1O[C@@H](O[C@H]2[C@H](Oc3cc(O)c(C(=O)CCc4ccc(O)cc4)c(O)c3)O[C@H](CO)[C@@H](O)[C@@H]2O)[C@H](O)[C@H](O)[C@H]1O [Naringin dihydrochalcone]
  Sweetness/potency: 300

## COc1ccc(CCC(=O)c2c(O)cc(O[C@@H]3O[C@H](CO)[C@@H](O)[C@H](O)[C@H]3O[C@@H]3O[C@@H](C)[C@H](O)[C@@H](O)[C@H]3O)cc2O)cc1O [Neohesperidin dihydrochalcone]
  Sweetness/potency: 1,000

## C[C@@H]1O[C@@H](O[C@H]2O[C@@H]([C@@H](C)C3CC[C@@H]4[C@H]5CC(=O)[C@@H]6C[C@H](O[C@@H]7O[C@H](CO)[C@@H](O)[C@H](O)[C@H]7O[C@@H]7O[C@@H](C)[C@H](O)[C@@H](O)[C@H]7O)CC[C@]6(C)[C@@H]5CC[C@]34C)CC[C@@H]2C)[C@H](O)[C@H](O)[C@H]1O (stereo partly drawn) [Osladin]
  Sweetness/potency: 500

## CC1(C(=O)O)C=C2C3CCC4C5(CO)CCC(OC6OC(C(=O)O)C(O)C(O)C6OC6OC(C(=O)O)C(O)C(O)C6O)C(C)(C)C5CCC4(C)C3(C)CCC2(C)CC1 (stereo not drawn) [Periandrin III]
  Sweetness/potency: 92
